Data from patent US20250282820A1, “PEPTIDE COMPLEX HAVING TRKB BINDING ACTIVITY” (PEPTIDREAM INC, priority 2022, published 2025).
*1 amine or outer side, *2 acyl side, *3 side chain or, on linkers, in order; H or OH if unused. Where a SMILES comes first, the peptide text is derived from it. Bridges are numbered along the chain shown (N, C = ends). Roman numbers before positions name the chains, in order. [ ]: non-standard residue; d: D form. CO(CH2CH2O)13CH2CH2CO = O=C(CCOCCOCCOCCOCCOCCOCCOCCOCCOCCOCCOCCOCCOCCC(=O)[*:2])[*:1]; 3Pal = N[C@@H](Cc1cccnc1)C(=O)O

How the values were obtained:
Type in all cases: cell-based
[1] = target: T1, TrkB (CellSensor TrkB-NFAT-bla CHO-K1 Cell) (Homo sapiens, UniProt Q16620); assay: pERK1/2 AlphaLISA assay (phosphorylation of ERK) for TrkB agonist activity; conditions: class = peptide concentration giving 50% or more activity; BDNF maximum signal = 100%, no stimulation = 0%; 15 minutes of stimulation
T1 construct: host or cells: CHO-K1 (CellSensor TrkB-NFAT-bla CHO-K1)
T1 sequence (Q16620 32-822): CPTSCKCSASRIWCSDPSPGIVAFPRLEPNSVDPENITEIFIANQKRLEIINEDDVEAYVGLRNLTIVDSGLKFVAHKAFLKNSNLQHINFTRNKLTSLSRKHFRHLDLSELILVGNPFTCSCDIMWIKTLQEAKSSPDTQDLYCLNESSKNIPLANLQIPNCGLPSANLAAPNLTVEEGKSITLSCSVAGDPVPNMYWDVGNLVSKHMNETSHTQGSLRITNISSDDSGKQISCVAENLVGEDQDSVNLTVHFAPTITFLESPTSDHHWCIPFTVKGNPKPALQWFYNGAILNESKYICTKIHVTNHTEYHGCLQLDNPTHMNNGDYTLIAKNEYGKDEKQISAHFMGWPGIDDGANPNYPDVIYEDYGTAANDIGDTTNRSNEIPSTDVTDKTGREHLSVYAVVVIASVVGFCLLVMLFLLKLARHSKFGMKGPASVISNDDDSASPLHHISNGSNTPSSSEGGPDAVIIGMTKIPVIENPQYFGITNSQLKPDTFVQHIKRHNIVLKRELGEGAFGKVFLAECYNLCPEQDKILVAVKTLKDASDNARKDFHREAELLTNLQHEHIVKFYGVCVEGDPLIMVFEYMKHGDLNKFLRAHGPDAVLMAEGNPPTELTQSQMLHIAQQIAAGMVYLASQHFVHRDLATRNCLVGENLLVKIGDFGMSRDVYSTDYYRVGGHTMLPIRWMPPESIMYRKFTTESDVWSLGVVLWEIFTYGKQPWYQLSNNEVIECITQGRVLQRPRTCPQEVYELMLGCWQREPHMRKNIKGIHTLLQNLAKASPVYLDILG
In short: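 TrkB-NFAT-bla CHO-K1 cells were starved 4 h in 0.1% BSA medium and then stimulated 15 min with peptide or BDNF; p-ERK1/2 (Thr202/Tyr204) in the lysate was read by AlphaLISA SureFire. Activity % was scaled to the BDNF maximum (100%) and no stimulation (0%); A = ≥50% at 1 nM, B = ≥50% at 10 nM; curves were 8 points, 4-fold dilutions from 100 nM.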

[2] = target: T1, TrkB (CellSensor TrkB-NFAT-bla CHO-K1 Cell); assay: NFAT transcriptional reporter assay for TrkB agonist activity; conditions: class = peptide concentration giving 50% or more activity; BDNF maximum signal = 100%, no stimulation = 0%; 5 hours culture
In short: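 CHO-K1 TrkB-NFAT-bla cells, 12,500 per well, treated overnight-seeded with peptide or BDNF for 5 h, then CCF4-AM substrate 2 h in the dark; 460/535 nm emission ratio. Activity scaled to maximal BDNF signal (100%) and unstimulated (0%); grades A/B/C mean ≥50% activity at 1, 10 or 100 nM.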

TrkB = TrkB (Homo sapiens, UniProt Q16620); assay: PathHunter eXpress TrkB Functional Assay (phosphorylation of TrkB); conditions: maximum signal induced by BDNF = 100%; stimulation for 3 hours
Sequence of TrkB (Q16620 32-822): as above
In short: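 PathHunter TrkB cells, cultured 48 h, were stimulated 3 h with peptide or BDNF, then detection reagent added for 60 min at room temperature; luminescence read. Activity (%) scaled from unstimulated (0%) to maximal BDNF signal (100%); peptides tested over 0.006104-100 nM, 0.032-100 nM or 0.01-10 nM ranges.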

Structure (SMILES)	pERK (aLISA) Assay Results [1]	NFAT Assay Results [2]	Emax (TrkB) [%]
CC(C)[C@@H]1NC(=O)[C@H](Cc2cccnc2)NC(=O)[C@H](CCC(=O)O)NC(=O)[C@H](CO)NC(=O)[C@H](Cc2ccc(O)cc2)NC(=O)[C@H]([C@@H](C)O)NC(=O)[C@@H]2CCCN2C(=O)[C@H](Cc2c[nH]c3ccccc23)NC(=O)[C@H](Cc2cccnc2)NC(=O)[C@H](Cc2ccc(O)cc2)NC(=O)[C@@H]2CCCN2C(=O)[C@H](CO)NC(=O)[C@H](Cc2ccccc2)NC(=O)CSC[C@@H](C(=O)NCC(=O)N[C@@H](CCCCNC(=O)CCOCCOCCOCCOCCOCCOCCOCCOCCOCCOCCOCCOCCOCCC(=O)NCCCC[C@H](NC(=O)CNC(=O)[C@@H]2CSCC(=O)N[C@@H](Cc3ccccc3)C(=O)N[C@@H](CO)C(=O)N3CCC[C@H]3C(=O)N[C@@H](Cc3ccc(O)cc3)C(=O)N[C@@H](Cc3cccnc3)C(=O)N[C@@H](Cc3c[nH]c4ccccc34)C(=O)N3CCC[C@H]3C(=O)N[C@@H]([C@@H](C)O)C(=O)N[C@@H](Cc3ccc(O)cc3)C(=O)N[C@@H](CO)C(=O)N[C@@H](CCC(=O)O)C(=O)N[C@@H](Cc3cccnc3)C(=O)N[C@@H](C(C)C)C(=O)N[C@@H](CCC(=O)O)C(=O)N2)C(N)=O)C(N)=O)NC(=O)[C@H](CCC(=O)O)NC1=O [compound 48] (I: {CH2CO}-FSPY[3Pal]WPTYSE[3Pal]VECGK-NH2 / II: {CH2CO}-FSPY[3Pal]WPTYSE[3Pal]VECGK-NH2; linker I:17-II:17 via CO(CH2CH2O)13CH2CH2CO; thioether I:N-I:15, II:N-II:15)	A (The peptide with 50% or more activity when 1 nM of the peptide was added was evaluated as A)	A (The peptide with 50% or more activity when 1 nM of the peptide was added was evaluated as A)	102
CC(C)[C@@H]1NC(=O)[C@H](Cc2cccnc2)NC(=O)[C@H](CCC(=O)O)NC(=O)[C@H](CO)NC(=O)[C@H](Cc2ccc(O)cc2)NC(=O)[C@H]([C@@H](C)O)NC(=O)[C@@H]2CCCN2C(=O)[C@H](Cc2c[nH]c3ccccc23)NC(=O)[C@H](Cc2cccnc2)NC(=O)[C@H](Cc2ccc(O)cc2)NC(=O)[C@@H]2CCCN2C(=O)[C@H](CCC(=O)O)NC(=O)[C@H](Cc2ccccc2)NC(=O)CSC[C@@H](C(=O)NCC(=O)N[C@@H](CCCCNC(=O)CCOCCOCCOCCOCCOCCOCCOCCOCCOCCOCCOCCOCCOCCC(=O)NCCCC[C@H](NC(=O)CNC(=O)[C@@H]2CSCC(=O)N[C@@H](Cc3ccccc3)C(=O)N[C@@H](CCC(=O)O)C(=O)N3CCC[C@H]3C(=O)N[C@@H](Cc3ccc(O)cc3)C(=O)N[C@@H](Cc3cccnc3)C(=O)N[C@@H](Cc3c[nH]c4ccccc34)C(=O)N3CCC[C@H]3C(=O)N[C@@H]([C@@H](C)O)C(=O)N[C@@H](Cc3ccc(O)cc3)C(=O)N[C@@H](CO)C(=O)N[C@@H](CCC(=O)O)C(=O)N[C@@H](Cc3cccnc3)C(=O)N[C@@H](C(C)C)C(=O)N[C@@H](CCC(=O)O)C(=O)N2)C(N)=O)C(N)=O)NC(=O)[C@H](CCC(=O)O)NC1=O [compound 56] (I: {CH2CO}-FEPY[3Pal]WPTYSE[3Pal]VECGK-NH2 / II: {CH2CO}-FEPY[3Pal]WPTYSE[3Pal]VECGK-NH2; linker I:17-II:17 via CO(CH2CH2O)13CH2CH2CO; thioether I:N-I:15, II:N-II:15)	A (The peptide with 50% or more activity when 1 nM of the peptide was added was evaluated as A)	A (The peptide with 50% or more activity when 1 nM of the peptide was added was evaluated as A)	93
